The test system of one assay is tyrosinase of B16 cells. The assay can be described thus: Tyrosinase activity assay, B16. Format: cell-based, mouse. As to conditions: 18.8 μM, 24 h. How it is done: Tyrosinase activity was determined by measuring the rate of oxidation of L-DOPA^34. Briefly, sub-confluent cultures in 6-well plate were lysed in 100 μl phosphate buffer pH 6.8-1% Triton X-100 and than centrifuged at 10000 rpm for 5 min. 40 μl of each extract was mixed with 100 μl of L-DOPA substrate solution (2 mg/ml). Enzymatic reaction was carried out at 37° C. and the absorbance at 570 nm was read every 10 min for at least 1 h. The final activity was corrected by the total amount of protein estimated by Bradford assay. For melanin determination cells were incubated in 6 well plate for 24 h, trypsinized, counted and than lysed in 100 μl of 1M NaOH. 400 μl of distilled water was added and samples were incubated at 60° C. for 1 h. Thereafter, absorbance of dissolved dye was measured at 492 nm.
FIG. 5. […] Cell morphology was assessed by light microscopy (A). Markers of cell differentiation of C6 and B16 cells, galactocerebroside, GFAP and MBP were determined by cELISA and melanin and tyrosinase activity were determined as described in material and methods (B). Cyclin D3 and p53 expression were evaluated by cELISA (C, upper panels), immunocytochemistry (C, middle panel) and Western blot (C, lower panel). The results were presented as mean±SD from three independent experiments. *p<0.05, refers to untreated cultures.

The test system of a further assay is CCR% e CXCR4 strains. The assay can be described thus: In-vitro anti-HIV activity. Format: cell-based.
For assay [1], the system named is B16 cells. The experiment in a line: MBP expression by cell-based ELISA, B16. The conditions noted are these: 18.8 μM, 24 h. Details: species or system mouse. The text has this: A slightly modified method for cell-based ELISA (cELISA) by Versteeg (Versteed et al., 2000) was used to measure the expression of galactocerebroside, glial fibrilar acidic protein (GFAP), myelin basic protein (MBP), cyclin D3, p53 and p-AKT. Briefly, at the end of cultivation period cells were fixed in 4% paraformaldehyde, endogenous peroxydase was quenched with 1% H2O2 in PBS containing 0.1% Triton X-100 (PBST), and unspecific binding of antibodies blocked with PBST solution containing 10% FCS. […] The absorbance at 450 nm was measured in an automated microplate reader 15 min after incubation with peroxydase substrate TMB and subsequently to addition of 0.1 M HCl. To facilitate comparison between treatments, the obtained absorbances were corrected for the cell number that was determined by crystal violet staining, as described in the original protocol. […]
FIG. 5. […] Cell morphology was assessed by light microscopy (A). Markers of cell differentiation of C6 and B16 cells, galactocerebroside, GFAP and MBP were determined by cELISA and melanin and tyrosinase activity were determined as described in material and methods (B). Cyclin D3 and p53 expression were evaluated by cELISA (C, upper panels), immunocytochemistry (C, middle panel) and Western blot (C, lower panel). […]
In general terms: ELISA stands for enzyme-linked immunosorbent assay.

Assay [2] concerns B16 cells. The assay can be described thus: Cyclin D3 and p53 expression (cELISA, immunocytochemistry, Western blot), B16. Format: cell-based, mouse. The conditions noted are these: 18.8 μM, 24 h (Western blot 4 h). The text has this: (§1) A slightly modified method for cell-based ELISA (cELISA) by Versteeg (Versteed et al., 2000) was used to measure the expression of galactocerebroside, glial fibrilar acidic protein (GFAP), myelin basic protein (MBP), cyclin D3, p53 and p-AKT. Briefly, at the end of cultivation period cells were fixed in 4% paraformaldehyde, endogenous peroxydase was quenched with 1% H2O2 in PBS containing 0.1% Triton X-100 (PBST), and unspecific binding of antibodies blocked with PBST solution containing 10% FCS. […] The absorbance at 450 nm was measured in an automated microplate reader 15 min after incubation with peroxydase substrate TMB and subsequently to addition of 0.1 M HCl. To facilitate comparison between treatments, the obtained absorbances were corrected for the cell number that was determined by crystal violet staining, as described in the original protocol.
(§2) The detection of expression of cyclin D3 and p53 expression was performed by the immunocytochemical procedure as previously described (Mijatovic et al, 2005). The cells were cultivated in glass chamber-slides (3×10^4 cells/well) and cyclin D3 and p53 expression were detected with specific antibodies against cyclin D3 (1:1000, Santa Cruz Biotechnology, Santa Cruz, Calif.) and p53 (1:500, Santa Cruz Biotechnology, Santa Cruz, Calif.). […]
A general note: In western blotting, separated proteins are transferred to a membrane and probed.

In another assay the test system is C6 cells. The experiment in a line: Cyclin D3 and p53 expression (cELISA, immunocytochemistry, Western blot), C6. Format: cell-based, rat. The conditions noted are these: 18.8 μM, 24 h (Western blot 4 h).
Excerpt: as §1, §2

`CC(C)(C)NC(=O)[C@@H]1C[C@@H]2CCCC[C@@H]2CN1C[C@@H](O)[C@H](Cc1ccccc1)NC(=O)[C@H](CC(N)=O)NC(=O)c1ccc2ccccc2n1` [Saq, Saquinavir, reference compound]: in the assay on tyrosinase of B16 cells, the tyrosinase activity result is “increased”.

For `CC(C)(C)NC(=O)[C@@H]1C[C@@H]2CCCC[C@@H]2CN1C[C@@H](O[N+](=O)[O-])[C@H](Cc1ccccc1)NC(=O)[C@H](CC(N)=O)NC(=O)c1ccc2ccccc2n1` [Saq-NO2, nitric ester of Saquinavir], the “in-vitro anti-HIV activity compared with Saquinavir” value with CCR% e CXCR4 strains was “at least as high as that of Saquinavir”. Further, the MBP expression result in the assay with B16 cells [1] was “mild elevation”. Besides, the tyrosinase activity result in the assay on tyrosinase of B16 cells is listed as “slight but significant decrease”. For the same compound, in the assay with B16 cells [2], the “cyclin D3 expression” value was “not considerably changed” and the p53 expression entry was “much higher extent than Saq”. In the assay with C6 cells, the “cyclin D3 expression” value is recorded as “not considerably changed” and the p53 expression entry is given as “much higher extent than Saq”.

The record behind these values is patent publication US8563578B2, “Antitumor properties of NO modified protease inhibitors” (Onconox APS, priority 2008, dated 2013).
